This is an account of results in US20250296961A1, “ANTIMICROBIAL PEPTIDES FOR REMINERALIZATION OF TEETH AND PREVENTION OF DENTAL CARIES” (The University of Hong Kong, priority 2021, published 2025).

Test [1] in a line: Demineralization assay of peptide-coated enamel (Example 1). Further details: species or system human. Conditions: demineralization solution 7 days. The method, then: (§1) 3×3×1.5 mm^3 (number: 197) tooth slices were prepared using a water-cooled diamond saw (IsoMet low-speed saw, Buehler, Lake Bluff, IL, USA). One working surface of complete enamel tissue from each tooth slice was generated using the MicroCT Skyscan 1172 (Bruker MicroCT, Kontich, Belgium). The enamel working side of the tooth slice was polished and other sides marked with acid-proof nail polish. All tooth slices were cleaned and stored in deionized water at 4° C.
Tooth slices (N=30) were immersed in 8 μmol/mL P-113, P-113-DPS, P-113-DA, P-113-SK, Sp-H5 (n=5 for each) solutions (in 10 mM HEPES) or HEPES (control) overnight. Tooth slices were incubated in 2 mL demineralization solution (2.2 mM CaCl2), 2.2 mM NaH2PO4, 0.05 M acetic acid, pH 4.5) for 7 days at 37° C. Lesions depths were analyzed by MicroCT Skyscan 1172. Mineral calcium (Ca) or phosphorus (P) concentrations before and after immersion were measured using Inductively Coupled Plasma Optical Emission Spectrometer (ICP-OES; Spectro Arcos, Kleve, Germany). Ca/P loss was expressed as mM/cm^2. The mean values of Ca/P loss were analyzed for each group using ANOVA at the 1% c significance level.

A short description of test [2]: Adsorption capacity assay: peptides with HA particles (Micro BCA). The test is classed as binding. The method, then: The adsorption of P-113, P-113-DPS, P-113-DA, and P-113-SK to HA particles (Sigma Chemical Co., St Louis, USA) was measured using the Micro BCA method with Sp-H5 as the control group. Solutions of P-113, P-113-DPS, P-113-DA, P-113-SK and Sp-H5 in 10 mM HEPES buffer (pH 7) were diluted to 10 nmol/mL concentrations, and 200 μL was placed into each tube (P-113, N=10; P-113-DPS, N=10; P-113-DA, N=10; P-113-SK, N=10; and Sp-H5, N=10). Peptide solutions were mixed with (n=5) or without (n=5) HA particles (20 mg/tube) in each group. Tubes were placed onto a rotator overnight at 37° C. for complete reaction. Tubes containing the peptide solution and HA were centrifuged (13000 rpm, 1 min) and the supernatant collected. Bovine serum albumin (BSA) standard solutions (working range=5-250 μg/mL) and working reagent were prepared using the Pierce BCA Protein Assay Kit (Rockford, IL, USA). Working reagents (100 μL/well) were added to a 96-well plate, followed by standard and peptide solutions (100 μL/well). The Plate was incubated in the dark for 30 min and the absorbance (562 nm) measured using a plate reader. The concentration (C) of the BSA standard solution was linear with the absorbance (A) at 562 nm. The function of C=a*A+b was determined (a and b as constants). The final concentration (the peptide solution mixed with HA) and the initial concentration (the peptide solution without HA) were computed using the function and the generated absorbance data of the peptide solution mixed with and without HA.

Test [3] is described as follows: Remineralization assay of peptide-coated enamel (Example 1). On the set-up: species or system human. Conditions: 8 μmol/mL coating, remineralization solution 24 h, FE-SEM. The method, then: as §1
The enamel working surface of tooth slices (N=30) was acid-etched in 37% phosphoric acid for 1 min and rinsed with deionized water for 1 min. The slices were immersed in 8 μmol/mL P-113, P-113-DPS, P-113-DA, P-113-SK, Sp-H5 (n=5 for each) solutions (in 10 mM HEPES) or HEPES (control) overnight. All tooth slices were incubated in 7 mL remineralization solution (2.58 mM CaCl2)·2H2O, 1.55 mM KH2PO4, 10 mg/L NaF, 180 mM NaCl, 50 mM Tris-HCl, pH 7.6) for 24 h. The enamel surface and cross-section morphology were analyzed by FE-SEM (Hitachi, S4800). Ca/P concentrations in the solutions before and after immersion were calculated by ICP-OES. The mean values for Ca/P gain were analyzed using ANOVA at the 1‰ significance level.

Test [4] has as its system S. gordonii. Nature of the test: Anti-planktonic bacterial ability, MBC (Example 2). The class given is cell-based, S. gordonii (ATCC 35105). The method, then:
S. mutans (ATCC 35668, ATCC, Manassas, USA), S. gordonii (ATCC 35105, ATCC, Manassas, USA), and S. sanguinis (ATCC 10556, ATCC, Manassas, USA) strains were cultured in brain-heart infusion broth (BHI, Difco Laboratories, Detroit, USA) at 37° C. under anaerobic conditions (85% N2, 10% H2, and 5% CO2). Bacteria were harvested by centrifugation (5000 rpm, 10 min), washed once with sodium phosphate-buffered saline (PBS, 10 mM, pH=7.2), and resuspended in BHI at a concentration of 1×10^6 CFU mL^−1.
Each well was seeded with 10 μL S. mutans suspension, S. gordonii suspension, and S. sanguinis suspension, respectively. […] The bacterial growth was assessed by measuring the absorbance at 595 nm using a microplate reader after a 24-hour incubation. Subsequently, 10 μL of bacterial suspension from each well were plated on horse blood agar plates and incubated at 37° C. for 48 h. The antibacterial activities of AMPs were evaluated.

Take “AKRHHGYKRKFH [Peptide P-113, non-specific AMP, portion of human histatin 5]”: the Maximum lesion depth in test [1] (8 μmol/mL coating, MicroCT) turned out to be 115 μm. The “Ca losses vs control group” value in test [1] is reported as “Significant differences were not detected”. Besides, the “Concentration change (95% CI)” value in test [2] (initial vs final concentration with HA particles) is given as 0.29 (−0.01-0.61). The “Final concentration (Mean ± SD)” value in test [2] (peptide solution mixed with HA particles (20 mg/tube), overnight 37° C.) was found to be 9.86 ± 0.23 nM mL^−1. Moreover, in test [3], the “Thickness of the regenerated crystal layer on the enamel surface” value worked out at 6 μm. Also, the “MBC, S. gordonii” value in test [4] is listed as more than 128 μM mL^−1.
